Experiment: Human HepG2 cell viability assay in 384 well format
Format: toxicity, cell-based
Design: dose 125 nL, time 70.5 hour; concentration not given beside the values
Conditions: HepG2 cells, read-out: Inhibition

Row | SMILES | cytotoxicity at 70.5 h [%]
1 | CN(C)C(=O)CN1CCC2(COCc3cnc(-c4ccccc4)nc32)C1 (configuration not stated) | -6.03
2 | CCc1sc(-c2nnc(CNCCn3cccn3)o2)cc1C | -0.343
3 | CCOCCCNC(=O)NCc1c(C)nn(C)c1C | 22.3
4 | CNc1snc(C)c1C(=O)N1CCC(Nc2ccc(C)nn2)CC1 | -3.58
5 | CCOC(=O)CCNC(=O)N1CCN(c2nc3ccccc3n2C)CC1 | -9.85
6 | CS(=O)(=O)N1CCCC1c1cccc(Nc2nccs2)n1 (configuration not stated) | 28.9
7 | Clc1ccc2cccnc2c1CN1CCCCC1Cn1cncn1 (configuration not stated) | -4.31
8 | c1ccc(CO[C@@H]2C[C@H]3CN(c4ncccn4)CCN3C2)nc1 | -7.06
9 | CC1CCN(c2cc(NC(=O)C3CC3)ncn2)CC1 | 0.806
10 | Cc1ccc(C(=O)N2C[C@@H](OCC3CCOCC3)[C@H]3OCCC[C@H]32)o1 | -27.2
11 | CC(=O)c1cc(CC(=O)NCc2ccc(F)cc2)cs1 | -1.82
12 | COc1ccc(Cc2noc(-c3ccc(NC(C)CO)nc3)n2)cc1 (configuration not stated) | 3.07
13 | Cn1cc(CN2CCCC(CCc3ccc(F)c(F)c3)C2)cn1 (configuration not stated) | -2.93
14 | CSc1ccc(-c2noc(CN(CC(C)C)CC(C)C)n2)cc1 | -12.7
15 | Cc1nn(C)c(C)c1C1CCCN1C(=O)c1ccc(C(N)=O)cn1 (configuration not stated) | 4.05
16 | Cc1cccc(CN2CCC3(CCCN(C(=O)CN(C)C)C3)C2=O)n1 (configuration not stated) | 2.41
17 | O=C1NCC2(CCCN(Cc3ccc(F)cc3)C2)Oc2ccccc21 (configuration not stated) | -1.98
18 | CCc1ccc(CN2CCC(c3ccccc3C(=O)O)C2)nc1 (configuration not stated) | -13.9
19 | Cn1cnc(-c2nc(C(=O)NCCN3CCCC3)c3ccccn23)c1 | -5.67
20 | COc1ccc(CN2CCC3(CC(=O)N(c4cncnc4)C3)C2)cc1 (configuration not stated) | -15.2
21 | N#Cc1c(F)cccc1NCCCOCC1CCOCC1 | -3.66
22 | CN(c1nc(CSc2nnc(Cn3cncn3)o2)cs1)C1CC1 | 0.758
23 | Cc1c[nH]c(CN2CCOC(c3ccc(Cl)cc3)C2)c(C)c1=O (configuration not stated) | -4.57

Row | SMILES | cytotoxicity at 70.5 h [%]
24 | Cc1nn(CCC#N)c(C)c1[C@@H]1C=C[C@@H](NCc2ccc(F)cc2)C1 | -0.333
25 | CCn1c(N)nc2cc(C(=O)N(C)Cc3cc(C(C)(C)C)n[nH]3)cnc21 | -5.41
26 | CN1C(=O)CCc2cc(NC(=O)C3CCCC3)ccc21 | 26.5
27 | COC1CCCN(C(=O)NCC(C)(C)SC)C1 (configuration not stated) | -11.6
28 | O=C1COc2cc(C(=O)NS(=O)(=O)c3ccc(F)c(F)c3)ccc2N1 | 10.9
29 | CC1(C)[C@H](Cc2cc(CN3CCCCC3)on2)C[C@@H]1NS(C)(=O)=O | -4.26
30 | CN1CCCC1c1cncc(C(=O)NCCN2CCCC2)n1 (configuration not stated) | -14.2
31 | Cc1cc(C(F)(F)F)n2nc(C3CCN(S(=O)(=O)N(C)C)CC3)cc2n1 | -0.288
32 | FC(F)(F)CCc1ccnc(NCc2csc(N3CCOCC3)n2)n1 | -10.4
33 | Cc1cccc(OC2CN(C(=O)C3CC(=O)N(C4CC4)C3)C2)c1 (configuration not stated) | 4.04
34 | Cc1cc(N2CCN(Cc3cn(C)nc3C)CC2)cc(C2CCCN2)n1 (configuration not stated) | -1.66
35 | COC1CCN(S(=O)(=O)N2CCCC2c2ccco2)CC1 (configuration not stated) | 0.386
36 | CCC(Oc1ccc(N(C)S(C)(=O)=O)cc1)C(=O)N(C)C (configuration not stated) | -3.36
37 | O=C(O)c1cc2c(nc1N1CCOCC1)CCN(C1CCOC1)CC2 (configuration not stated) | -4.23
38 | CC1(C)CC(CN2CCC3(CCC(=O)N(C4CCC4)C3)CC2)CCO1 (configuration not stated) | -9.04
39 | COc1ccc(CCCN2C(=O)O[C@@H]3CN(C4CCOCC4)C[C@@H]32)cc1 | -3.64
40 | CSc1ncnc(NCc2cccs2)c1C#N | -10.7
41 | CCOCC(=O)NC(C)Cc1ccccc1Br (configuration not stated) | -4.95
42 | c1cnnc(N2CCCC(NCc3nc(-c4cccs4)no3)C2)c1 (configuration not stated) | -6.61
43 | Cn1cc(N2CCN(c3ccc(C#N)cc3F)CC2=O)cn1 | -3.17
44 | CO[C@H]1CN(C(C)C)C[C@@H]1NC(=O)Nc1ccc2oc(C)cc2c1 | 26.1
45 | CCOc1ccc(CN2CCN(C(=O)c3cc(C4CC4)[nH]n3)CC2)cc1 | -2.02
46 | CSc1nc2cc(C)n(CC(=O)N3CCCC3)c2c(=O)n1CC(C)C | -5.31

Row | SMILES | cytotoxicity at 70.5 h [%]
47 | Cc1cc(C(=O)N2CCOC[C@H](Oc3cnccn3)C2)c(C(F)(F)F)o1 | 2.77
48 | CC(C)Oc1ncccc1CNC(=O)c1ccco1 | 1.27
49 | COc1cc(C)nc(N2CCN(C(=O)c3ccn(C)c(=O)c3)CC2)n1 | -0.122
50 | Cc1cc2[nH]c(CN3CCOC(Cc4ccccc4)C3)cc(=O)n2n1 (configuration not stated) | 18.7
51 | COc1ccc(F)cc1S(=O)(=O)NCC(c1cccn1C)N(C)C (configuration not stated) | -1.76
52 | O=C(c1cscn1)N1CCC(O)(Cn2ccc3ccncc32)CC1 | -6.76
53 | CCc1c(O)nc(SC(C)CC)n(-c2ccccc2)c1=O (configuration not stated) | -7.78
54 | Cc1cc(CNc2ccc3nc(C)sc3c2)no1 | -4.46
55 | O=C(NCCN1CCCCCC1)c1n[nH]c(=O)c2ccccc12 | 1.79
56 | O=C(NCC1CCOC1)c1ccc(-c2ccccc2)[nH]c1=O (configuration not stated) | -7.11
57 | Cc1cnn(C2CN(CCOc3ccccc3C#N)C2)c1 | -4.34
58 | CN1N=C(C(=O)N(Cc2ccco2)C2CC2)CCC1=O | -9.82
59 | c1cnn(CC2CCCN2Cc2nc(-c3ccoc3)no2)c1 (configuration not stated) | 28.2
60 | Cc1cccc(CN2CCCC(O)(CNCc3cccc(F)c3)C2=O)c1 (configuration not stated) | -5.44
61 | Cc1c[nH]cc1C(=O)N1CCN(CCc2cccs2)CC1 | -5.85
62 | CCC1=N[C@@]2(CC[C@@H]3CN(Cc4ccccc4C)C[C@@H]32)C(=O)N1 | -4.43
63 | COC(=O)N(C)CCCC(=O)Nc1[nH]nc(-c2ccncc2)c1C | -2.11
64 | CN(CC(=O)NS(=O)(=O)c1cccs1)Cc1ccccc1 | 7.04
65 | COCCN1CCO[C@@H]2CN(C(=O)NCc3cccnc3)CC[C@@H]2C1 | 0.801
66 | Cc1cc(C(=O)N2CCO[C@H]3[C@H](Oc4ccccn4)CC[C@@H]32)c(C)[nH]1 | -8.01
67 | O=C(NCCNC(=O)c1ccc(Br)cc1)c1ccc(O)cc1 | -11
68 | NC(=O)C1CCCN(c2ccc(CNC(=O)c3cc[nH]n3)cc2)C1 (configuration not stated) | 5.04
69 | CCOCC(=O)N1Cc2cnc(-c3ccccc3)nc2C1 | -13

Row | SMILES | cytotoxicity at 70.5 h [%]
70 | CCCS(=O)(=O)N1C[C@H]2C[C@H](C(=O)Nc3cccnc3)[C@@H](C1)O2 | -4.17
71 | O=C(c1cnccn1)N1CCc2ncc(CN3CCOCC3)n2CC1 | -8.64
72 | CC(C)c1nnc2n1CCN(Cc1ncc(-c3ccccc3)o1)C2 | -10.5
73 | Cc1cc(=O)n2nc(Oc3ccc(Cl)c(C)c3)sc2n1 | -6.83
74 | CCn1cc(S(=O)(=O)NC(CO)Cc2c[nH]c3ccccc23)cn1 (configuration not stated) | -7.79
75 | CC(C)[C@@H](C)NC1CCN(c2ccc(-n3ccnc3)cc2)CC1 | -12.5
76 | COc1ccc(S(=O)(=O)N2CCOC[C@H](Oc3cnccn3)C2)cc1 | -0.146
77 | CCc1nc2c(c(N3CCOCC3)n1)CCN(C(=O)c1ccon1)CC2 | 6.74
78 | CC(CCN1CCC(n2cc(CCO)nn2)CC1)c1ccccc1 (configuration not stated) | -8.84
79 | CCCNC(=O)C1(CC2CC(c3ccccc3OC)=NO2)CCOCC1 (configuration not stated) | 6.7
80 | Cc1ccc(C(=O)N2CCCC(N(C)C(=O)OC(C)(C)C)C2)o1 (configuration not stated) | 2.04
81 | COC1CCN(C(=O)CCn2cccn2)CC1 | -8.03
82 | C[C@@H]1CN(c2cccnn2)CC[C@@]1(O)C1CCOCC1 | -4.49
83 | O=C(C[S+]([O-])Cc1cccc(F)c1)NC1CCCC1 (configuration not stated) | 0.67
84 | Cc1cccc(C2CCCN(C(=O)CN3CCCC3=O)C2)c1 (configuration not stated) | -21.9
85 | CNCc1cn(C2CCN(C(=O)NCc3ccco3)CC2)nn1 | -8.5
86 | CCOCCN1CCN(c2ccc(C#N)cn2)CC1 | -9.92
87 | O=C(C1CC1)N1CCN(C(=O)CSc2ccccn2)[C@H]2CS(=O)(=O)C[C@H]21 | 24
88 | CCOc1ncccc1C(=O)N1CCCCC1c1nccs1 (configuration not stated) | 2.5
89 | COc1ccccc1CNC(=O)N1CCN(Cc2cc(C)on2)CC1 | -2.55
90 | CC(C)c1nc(C2CCCN2c2cnc3ccccc3n2)no1 (configuration not stated) | -6.53
91 | c1ccc(-c2nnn3c2COC(CNCC2CCOCC2)C3)cc1 (configuration not stated) | -5.85
92 | Clc1ccc(-n2cnnc2CCCN2CCOCC2)cc1 | 1.11

Row | SMILES | cytotoxicity at 70.5 h [%]
93 | Cc1nsc(N2CCCN(c3ccc(C#N)cn3)CC2)n1 | -0.603
94 | COC(=O)c1cc(OCC2CCC2)cc(C(=O)N[C@H](C)C(N)=O)c1 | -10.2
95 | NC1(C(=O)NCC2CCCN(Cc3ccccc3F)C2)CCCC1 (configuration not stated) | -1.04
96 | CC[C@H](C)Nc1ncc(-c2ccn(C3CCN(C(C)=O)CC3)n2)cn1 | -5.16
97 | CNC(=O)NC(=O)CN1CCc2c(Br)ccc(F)c2C1 | -0.281
98 | CCN(CC)CCn1cnc(-c2ccccc2)c1-c1ncc[nH]1 | -10.3
99 | Cc1cc(CNC(=O)N(Cc2ccc(F)cc2F)C2CC2)no1 | 15.5
100 | NC(=O)CNC(c1ccccc1)c1ccccc1 | 17.2
101 | CS(=O)(=O)NC[C@]12COC[C@H]1CN(C(=O)CC1CCCC1)C2 | -13.4
102 | Cc1ccc(CC(=O)NCC(O)c2cccc(C(F)(F)F)c2)cn1 (configuration not stated) | -0.0497
103 | O=C1Nc2ccccc2CN(C/C=C/c2ccccc2)C12CCNC2 (configuration not stated) | 2.42
104 | CCc1nc(C2CCCN2C(=O)c2ccc(N(C)C)nn2)no1 (configuration not stated) | -0.946
105 | CC(=O)N1CCN(c2cnccn2)CC(CO)C1 (configuration not stated) | -5.92
106 | Cc1noc(C2CCN(C(=O)Nc3ccc(N(C)C)nc3)CC2)n1 | 1.32
107 | O=C1CCC2(CCCN(Cc3ccccc3F)C2)N1CC1CC1 (configuration not stated) | -2.34
108 | Cc1ocnc1C(=O)N(C)[C@@H]1CC[C@@H](Oc2ccccc2)[C@@H]1O | -5.13
109 | CCOC(=O)C1(O)CCN(C(=O)Nc2cccc(F)c2)CC1 | 4.4
110 | CC1=NOC(C(=O)N(C)CCCn2nc(C)cc2C)C1 (configuration not stated) | -0.336
111 | O=C(c1ccc2c(c1)OCO2)N1CCCSCC1CN1CCCC1 (configuration not stated) | 0.782
112 | Cc1cn2c(n1)CCC(NC(=O)COCCOc1ccccc1)C2 (configuration not stated) | -8.88

From ChEMBL document CHEMBL3507680, “University of Dundee, Gates Library screen for HepG2 cell viability”
